{"source": "patent US20060079497A1", "about": "“Lavendamycin analogues and methods of synthesizing and using lavendamycin analogues” (Ball State University, priority 2004, published 2006)", "key": {"HIV-RT": {"molecular_target": "T1, HIV-RT (Human immunodeficiency virus type 1 group M subtype B, UniProt P04585)", "T1 construct": "1 unit/mL of HIV-RT (Worthington Biochemical Corp., Freehold, N.J.); purchased Worthington Biochemical Corp., Freehold, N.J", "assay": "Two drug combination of AZT-TP and analogues at constant molar ratios in HIV-RT assay (CI and dose reduction index)", "assay_type": "biochemical", "excerpt": "In order to derive the dose reduction index of several of these compounds the method of Chou and Talalay was again employed using the classic isobologram technique. This method also involves the plotting of dose-effect curves for each agent as well as for multiply diluted fixed-ratio combinations of the agents.\nThe dose reduction index is a measure of how much the dose of each drug in a synergistic combination may be reduced at a given effect level compared with the doses of each drug alone.\n(§1) The assay procedure described below is adapted from Okada et al. (Okada, H.; Mukai, H.; Inouye, Y; Nakamura, S. “Biological Properties of Streptonigrin Derivatives II. Inhibition of Reverse Transcriptase Activity,” J. Antibiot., 1986, 39, 306-308). The lavendamycin analogs were initially dissolved in DMSO at a concentration of 1 mg/mL. Occasionally, mild sonication and heat were used to dissolve the less soluble compounds. The dissolved analogs were then serially diluted in distilled water to achieve concentrations in the final reaction mixture ranging from 0.5-15 μM. In addition to the lavendamycin analogs, the final reaction mixture contained 100 mM Tris-HCl (pH 8.0), 5 mM MgCl2, 5 mM dithiothreitol, 60 mM NaCl, 0.2 mM [^3H] thymidine triphosphate(5 μCi well), 4 μg/mL poly (rA)-oligo(dT)12-18 (Amersham Pharmacia Biotech, Piscataway, N.J.) and 1 unit/mL of HIV-RT (Worthington Biochemical Corp., Freehold, N.J.) in a total volume of 300 μL. For each assay, the reaction mixture containing 8× buffer, double distilled H2O, ^3HTTP, template-primer and HIV-RT was pre-mixed in a 15-mL sterile tube in quantities required for the particular experiment. After adding the enzyme, the reaction mixture was mixed and kept on ice. The inhibitors, either AZT(Moravek Biochemicals, Brea, Calif.), analogs or both were added to appropriate wells in a 24 well microtiter plate and ddH2O was added to each well to bring the volume of all test wells to 100 μL. Two hundred μL of the chilled reaction mixture was then added to each of the test wells, mixed, and incubated for 1 hr at 37° C. Several control wells with no inhibitors were included on each test plate. After stopping the reactions with 25 μL 0.1 M EDTA, triplicate samples of 15 μL from each test well were spotted on DE81 ion exchange filter paper squares (Whatman Paper, Maidstone, England). After drying, each filter was washed for 10 minutes three times with 5% TCA-NHPO4, three times with 0.6M NaCl-[…] Na Citrate, one time with ddH2O and one time with 95% ethanol. After drying the individual filter papers were added to 5 mL Scintiverse E (Fisher Scientific, Chicago, Ill.) scintillation fluid and the amount of 3H-TTP uptake measured as counts per minute on a Beckman liquid scintillation counter. […] The results were then analyzed using Calcusyn, a windows software program for dose effect analysis designed by T. -C. Chou and M. P. Hayball and published by Biosoft® (UK)."}, "[1]": {"molecular_target": "T2, HIV reverse transcriptase (HIV-RT) (Human immunodeficiency virus type 1 group M subtype B, UniProt P04585)", "T2 construct": "1 unit/mL of HIV-RT (Worthington Biochemical Corp., Freehold, N.J.); purchased Worthington Biochemical Corp., Freehold, N.J", "assay": "HIV-RT assay (3H-TTP incorporation, modified assay of Okada et al.)", "assay_type": "biochemical", "protocol": "Briefly, the analogues were initially dissolved in either DMSO or HEPES buffer (pH 7.2) and then diluted to the appropriate concentration before addition to the assay mixtures. […] Several control wells without any inhibitors were also included on each microtiter plate. The reactions were allowed to proceed for 1 h at 37° C. […] A more detailed description of reaction conditions is provided below in the Examples. The concentration of drug which inhibited 50% of the enzyme activity (IC50) was determined by using the computer software program Calcusyn, which plots the dose-effect curves from the inhibition data and calculates the IC50 for each drug.\nas §1"}, "[2]": {"assay": "Water solubility in HEPES buffer solution", "assay_type": "physicochemical"}, "BALB/c mice": {"tested_on": "BALB/c mice", "assay": "In vivo toxicity of analogue 19 in BALB/c mice", "design": "species or system mouse", "excerpt": "Analogue 19 was first solubilized in 10% dry DMSO, diluted in water, and given to the mice intraperitoneally in one dose or in two doses per day. Mice were weighed and observed for 3 days following treatment."}, "tumor": {"tested_on": "tumor", "assay": "Antitumor activity (applicant's earlier studies)"}, "[3]": {"conditions": "50% inhibition of HIV RT activity toward 1 unit of enzyme, read-out: Mean IC50 ± SEM (no. of expts)"}, "[4]": {"conditions": "Mean IC50 ± SEM (no. of expts), 50% inhibition of HIV RT activity toward 1 unit of enzyme"}}, "note": "Several values for one entry are separate records, joined by “and”; a condition that tells them apart may be missing. Equal values may be shown once. Read-outs that look alike come from different tables or passages of the source."}
{"smiles": "CCCCOC(=O)c1cc2c([nH]c3ccccc32)c(-c2ccc3c(n2)C(=O)C(NC(=O)CCC)=CC3=O)n1", "note": "[Compound 12, 7-N-n-Butyryidemethyllavendamycin n-Butyl Ester]", "values": [{"measurement": "dose reduction in combination with AZT-TP", "setting": "HIV-RT", "result": "considerable dose reduction"}, {"measurement": "CI at HIV-RT Inhibition of 50%", "setting": "HIV-RT; molar ratio AZT:analogue 1:600", "result": "0.45 ± 0.06"}, {"measurement": "CI at HIV-RT Inhibition of 70%", "setting": "HIV-RT; molar ratio AZT:analogue 1:600", "result": "0.32 ± 0.08"}, {"measurement": "Dose Reduction Index (50%) AZT-TP", "setting": "HIV-RT; molar ratio AZT:analogue 1:600", "result": 3.0}, {"measurement": "Dose Reduction Index (50%) analogue", "setting": "HIV-RT; molar ratio AZT:analogue 1:600", "result": 8.2}, {"measurement": "CI at HIV-RT Inhibition of 50%", "setting": "HIV-RT; molar ratio AZT:analogue 1:857", "result": "0.39 ± 0.06"}, {"measurement": "CI at HIV-RT Inhibition of 70%", "setting": "HIV-RT; molar ratio AZT:analogue 1:857", "result": "0.32 ± 0.09"}, {"measurement": "Dose Reduction Index (50%) AZT-TP", "setting": "HIV-RT; molar ratio AZT:analogue 1:857", "result": 3.9}, {"measurement": "Dose Reduction Index (50%) analogue", "setting": "HIV-RT; molar ratio AZT:analogue 1:857", "result": 7.3}, {"measurement": "IC50", "setting": "[1]; [3]", "result": "5.8 ± 1.5", "unit": "µM"}, {"measurement": "IC50", "setting": "[1]; read-out: IC50 against HIV-RT", "result": "< 8", "unit": "µM"}]}
{"smiles": "CC(=O)NC1=CC(=O)c2ccc(-c3nc(C(=O)OCCOP(=O)(O)O)cc4c3[nH]c3ccccc34)nc2C1=O", "note": "[Compound 19]", "values": [{"measurement": "dose reduction in combination with AZT-TP", "setting": "HIV-RT", "result": "considerable dose reduction"}, {"measurement": "CI at HIV-RT Inhibition of 50%", "setting": "HIV-RT; molar ratio AZT:analogue 1:600", "result": "<0.1 ± 0.10"}, {"measurement": "CI at HIV-RT Inhibition of 70%", "setting": "HIV-RT; molar ratio AZT:analogue 1:600", "result": "<0.1 ± 0.16"}, {"measurement": "Dose Reduction Index (50%) AZT-TP", "setting": "HIV-RT; molar ratio AZT:analogue 1:600", "result": ">100"}, {"measurement": "Dose Reduction Index (50%) analogue", "setting": "HIV-RT; molar ratio AZT:analogue 1:600", "result": ">100"}, {"measurement": "CI at HIV-RT Inhibition of 50%", "setting": "HIV-RT; molar ratio AZT:analogue 1:857", "result": "<0.1 ± 0.15"}, {"measurement": "CI at HIV-RT Inhibition of 70%", "setting": "HIV-RT; molar ratio AZT:analogue 1:857", "result": "0.21 ± 0.18"}, {"measurement": "Dose Reduction Index (50%) AZT-TP", "setting": "HIV-RT; molar ratio AZT:analogue 1:857", "result": ">40"}, {"measurement": "Dose Reduction Index (50%) analogue", "setting": "HIV-RT; molar ratio AZT:analogue 1:857", "result": ">15"}, {"measurement": "inhibition at 15 µM", "setting": "[1]; 15 μM", "result": "> 92", "unit": "%"}, {"measurement": "IC50", "setting": "[1]; IC50 against HIV-RT", "result": "< 8 µM and 3 µM"}, {"measurement": "Water solubility", "setting": "[2]", "result": 0.05, "unit": "mg/1 mL"}, {"measurement": "survival and tolerability", "setting": "BALB/c mice; 50 mg/kg as one ip injection", "result": "survived and tolerated"}, {"measurement": "survival and tolerability", "setting": "BALB/c mice; 75 mg/kg ip in two injections within twenty-four hours", "result": "survived and tolerated"}]}
{"smiles": "CC(=O)NC1=CC(=O)c2ccc(-c3nc(C(=O)O)cc4c3[nH]c3ccccc34)nc2C1=O", "note": "[Compound 18, 7-N-Acetyldemethyllavendamycin]", "values": [{"measurement": "dose reduction in combination with AZT-TP", "setting": "HIV-RT", "result": "considerable dose reduction"}, {"measurement": "CI at HIV-RT Inhibition of 70%", "setting": "HIV-RT; molar ratio AZT:analogue 1:600", "result": "1.35 ± 0.64"}, {"measurement": "Dose Reduction Index (50%) AZT-TP", "setting": "HIV-RT; molar ratio AZT:analogue 1:600", "result": 1.5}, {"measurement": "Dose Reduction Index (50%) analogue", "setting": "HIV-RT; molar ratio AZT:analogue 1:600", "result": 2.6}, {"measurement": "CI at HIV-RT Inhibition of 70%", "setting": "HIV-RT; molar ratio AZT:analogue 1:857", "result": "1.7 ± 1.49"}, {"measurement": "Dose Reduction Index (50%) AZT-TP", "setting": "HIV-RT; molar ratio AZT:analogue 1:857", "result": 1.7}, {"measurement": "Dose Reduction Index (50%) analogue", "setting": "HIV-RT; molar ratio AZT:analogue 1:857", "result": 2.0}, {"measurement": "IC50", "setting": "[1]; [4]", "result": "13.3 ± 4.4", "unit": "µM"}, {"measurement": "Water solubility", "setting": "[2]", "result": 0.05, "unit": "mg/1 L"}]}
{"smiles": "CCCCCCCCOC(=O)c1cc2c([nH]c3ccccc32)c(-c2ccc3c(n2)C(=O)C(N)=CC3=O)n1", "note": "[Compound 20, Demethyllavendamycin n-Octyl Ester]", "values": [{"measurement": "dose reduction in combination with AZT-TP", "setting": "HIV-RT", "result": "considerable dose reduction"}, {"measurement": "CI at HIV-RT Inhibition of 50%", "setting": "HIV-RT; molar ratio AZT:analogue 1:214", "result": "0.46 ± 0.11"}, {"measurement": "CI at HIV-RT Inhibition of 70%", "setting": "HIV-RT; molar ratio AZT:analogue 1:214", "result": "0.56 ± 0.22"}, {"measurement": "Dose Reduction Index (50%) AZT-TP", "setting": "HIV-RT; molar ratio AZT:analogue 1:214", "result": 4.08}, {"measurement": "Dose Reduction Index (50%) analogue", "setting": "HIV-RT; molar ratio AZT:analogue 1:214", "result": 4.63}, {"measurement": "CI at HIV-RT Inhibition of 50%", "setting": "HIV-RT; molar ratio AZT:analogue 1:600", "result": "0.49 ± 0.17"}, {"measurement": "CI at HIV-RT Inhibition of 70%", "setting": "HIV-RT; molar ratio AZT:analogue 1:600", "result": "0.40 ± .09"}, {"measurement": "Dose Reduction Index (50%) AZT-TP", "setting": "HIV-RT; molar ratio AZT:analogue 1:600", "result": 2.4}, {"measurement": "Dose Reduction Index (50%) analogue", "setting": "HIV-RT; molar ratio AZT:analogue 1:600", "result": 13.7}, {"measurement": "IC50", "setting": "[1]; [3]", "result": "7.1 ± 2.7", "unit": "µM"}, {"measurement": "IC50", "setting": "[1]; read-out: IC50 against HIV-RT", "result": "< 8", "unit": "µM"}]}
{"smiles": "COC(=O)c1nc(-c2ccc3c(n2)C(=O)C(NC(C)=O)=CC3=O)c2[nH]c3ccccc3c2c1C", "note": "[Compound 11, 7-acetyllavendamycin methyl ester]", "values": [{"measurement": "IC50", "setting": "[1]; [4]", "result": "15.1 ± 5.9", "unit": "µM"}, {"measurement": "antitumor activity", "setting": "tumor", "result": "highly active antitumor agents"}]}
{"smiles": "CC(=O)NC1=CC(=O)c2ccc(-c3nc(C(N)=O)cc4c3[nH]c3ccccc34)nc2C1=O", "note": "[Compound 16, 7-N-Acetyldemethyllavendamycin Amide]", "values": [{"measurement": "IC50", "setting": "[1]; [4]", "result": "12.7 ± 5.2", "unit": "µM"}, {"measurement": "antitumor activity", "setting": "tumor", "result": "highly active antitumor agents"}]}
